Reference: patent US20260273072A1, “NOVEL PLK1 DEGRADATION INDUCING COMPOUND” (UPPTHERA, INC., priority 2023, published 2026)

Experiments:
Assay type in all cases: cell-based
MRC-5 cell line = experiment: Cell viability assay for MRC-5 cell line (EZ-Cytox); details: Homo sapiens, MRC5, 120 h; MRC-5 normal cell line, 5 days, 10000 nM to 1.52 nM; read-out: Activity: IC50 value, cell viability, MRC-5 cell line (Exemplary Compounds)
Procedure: 4. Cell Viability Assay for MRC-5 Cell Line
(1) Culture of MRC-5 Cell Line
The MRC-5 cell line was purchased from KCLB. Passage of cultured cells was maintained within P15.
(2) Treatment of Compounds of the Present Invention
Then, it was cultured in 37° C. CO2 incubator (Thermo Fisher Scientific) for 5 days.
(3) Cytotoxicity Experiment
CO2 incubator for 4 hours.

PLK1 = target: T1, PLK1 (Homo sapiens, UniProt P53350); experiment: Luciferase assay for PLK1 in HeLa LgBit (Plk1-HiBit KI) cell line; details: 300 nM compound, luminescence after 9 hours
T1 construct: endogenous in cells; host or cells: HeLa LgBit (Plk1-HiBit KI): HeLa stably expressing LgBit, with a CRISPR/Cas9 knock-in of HiBit at the endogenous PLK1 locus
T1 sequence (P53350 whole entry): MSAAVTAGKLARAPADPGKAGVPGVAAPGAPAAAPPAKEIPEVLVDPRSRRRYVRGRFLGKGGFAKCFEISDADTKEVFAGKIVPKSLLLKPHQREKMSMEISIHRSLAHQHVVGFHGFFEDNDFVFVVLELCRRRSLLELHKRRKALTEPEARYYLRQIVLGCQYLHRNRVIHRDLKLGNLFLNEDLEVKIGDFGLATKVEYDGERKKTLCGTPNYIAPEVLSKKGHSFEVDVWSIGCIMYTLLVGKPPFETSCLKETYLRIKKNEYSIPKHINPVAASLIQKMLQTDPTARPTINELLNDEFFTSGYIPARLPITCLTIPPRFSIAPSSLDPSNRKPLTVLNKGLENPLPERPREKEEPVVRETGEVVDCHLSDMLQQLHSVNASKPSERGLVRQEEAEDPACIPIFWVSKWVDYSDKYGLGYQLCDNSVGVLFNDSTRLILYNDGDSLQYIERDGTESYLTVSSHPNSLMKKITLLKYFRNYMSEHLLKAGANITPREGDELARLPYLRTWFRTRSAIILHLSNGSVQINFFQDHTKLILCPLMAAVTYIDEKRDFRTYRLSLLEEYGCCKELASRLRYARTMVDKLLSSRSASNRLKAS
Procedure: 2. Luciferase Assay for PLK1
(1) Preparation and Culture of HeLa LgBit (Plk1-HiBit KI) Cell Line
A HeLa cell line in which the LgBit vector was transfected and expressed stably was prepared. Then, after constructing gRNA and donor to express the HiBit amino acid sequence behind the C-terminal of the PLK1 gene, which was inherent in the cell, it was inserted into the cell together with a vector capable of expressing CRISPR/Cas9. Only the cells in which the insertion was completed and knock-in had progressed were selected, sub-cultured and used.
For cell culture, DMEM (Gibco), FBS (Gibco), PS (Gibco), […] cell culture dish (SPL), […] cell culture dish (SPL), 96-well culture plate (SPL), PBS pH 7.4 (Gibco), TrypLE™ Express (Gibco), Cell counter (Thermo Fisher Scientific) and 0.4% Trypan Blue Solution (DYNEBIO) were used.
(2) Treatment of Compounds of the Present Invention and Method of Luciferase Assay
In the case of HeLa LgBit (Plk1-HiBit KI), the compounds were treated after being released after thymidine block, and the process was as follows. Thymidine (Sigma-Aldrich) was completely dissolved in ddH2O and used in the experiment. For thymidine block, the products were treated with 2 mM of thymidine and then incubated for 24 hours. For release and chemical treatment, the medium was suctioned and washed with 1×PBS. TrypLE™ (Gibco) was added and incubated in 37° C. CO2 incubator (Thermo Fisher Scientific) for 5 mins. Cells neutralized by adding complete media were counted through a counter. For each well of a 96-well culture plate (SPL), 3.3×10^4 cells and a total medium volume of 150 μl were seeded and incubated in a CO2 incubator.
Each cell line was incubated in a CO2 incubator for 18 hours, and Endurazine (Promega, Cat. No. N257B) was added to each well to make up 4% of the total volume. After adding compounds of Examples in a 96-well white plate (SPL) to a concentration of 300 nM, the wavelength of the plate reader (BMG Labtech, CLARIOstar Plus) was set to 470-480 nm, and then the luminescence was tracked in real time.
In Table 2, Activity represents the ratio of the luminescence value of each Exemplary Compound treatment group to DMSO treatment group (+++: <0.3, ++: <0.5, +: <0.7).

NCI-H526 cell line = experiment: Cell viability assay for NCI-H526 cell line (EZ-Cytox); details: Homo sapiens, NCI-H526, 120 h; H526 cells, 5 days, 3000 nM to 0.46 nM
Procedure: (§1) 3. Cell Viability Assay for NCI-H69, NCI-H526 Cell Lines
(§2) (1) Culture of NCI-H69, NCI-H526 Cell Lines
(§3) The NCI-H69 (hereafter H69) and NCI-H526 (hereafter H526) cell lines were purchased from KCLB.
(§4) (2) Treatment of Compounds of the Present Invention and Method of Cell Viability Assay
(§5) After treating the compound to each well to make the total volume of 200 μl, it was cultured in a CO2 incubator (Thermo Fisher Scientific) for 5 days. […] The absorbance of the completely cultured sample was measured by setting the wavelength of a plate reader (BMG Labtech) to […], and was measured after shaking for 3 minutes in a plate reader before measurement.
(§6) The results of cell viability for H526 and H69 cell line are shown in Table 3 and Table 4, respectively.
(§7) In Table 3 and Table 4, Activity represents IC50 value of each Exemplary Compound treatment group to H526 and H69 cell line, respectively (A: <30 nM, B: <50 nM, C: <100 nM, D: <200 nM, E: <400 nM).

NCI-H69 cell line = experiment: Cell viability assay for NCI-H69 cell line (EZ-Cytox); details: Homo sapiens, NCI-H69, 120 h; H69 cells, 5 days, 3000 nM to 0.46 nM
Procedure: as §1, §2, §3, §4, §5, §6, §7

Structure (SMILES) | IC50 (MRC-5 cell line) | Activity: ratio of the luminescence value of compound treatment group to DMSO treatment group (PLK1) | IC50 (NCI-H526 cell line) | IC50 (NCI-H69 cell line)
COc1cc(C(=O)NC2CCC(N(C)CC3CCN(c4cnc(C5CCC(=O)NC5=O)cc4F)CC3)CC2)ccc1Nc1ncc2c(n1)N(C1CCCC1)CC(F)(F)C(=O)N2C (stereo not shown) [Compound 20, 4-((9-cyclopentyl-7,7-difluoro-5-methyl-6-oxo-6,7,8,9-tetrahydro-5H-pyrimido[4,5-b][1,4]diazepin-2-yl)amino)-N-((1r,4r)-4-(((1-(6-(2,6-dioxopiperidin-3-yl)-4-fluoropyridin-3-yl)piperidin-4-yl)methyl)(methyl)amino)cyclohexyl)-3-methoxybenzamide] | > 10000 nM | +++ (+++: <0.3) | < 30 nM | < 30 nM
COc1cc(C(=O)NC2CC3(CCN(CC4CCN(c5cnc(C6CCC(=O)NC6=O)cc5C)CC4)CC3)C2)ccc1Nc1ncc2c(n1)N(C1CCCC1)CC(F)(F)C(=O)N2C (stereo not shown) [Compound 17, 4-((9-cyclopentyl-7,7-difluoro-5-methyl-6-oxo-6,7,8,9-tetrahydro-5H-pyrimido[4,5-b][1,4]diazepin-2-yl)amino)-N-(7-((1-(6-(2,6-dioxopiperidin-3-yl)-4-methylpyridin-3-yl)piperidin-4-yl)methyl)-7-azaspiro[3.5]nonan-2-yl)-3-methoxybenzamide] | > 10000 nM | +++ (+++: <0.3) | < 30 nM | < 30 nM
COc1cc(C(=O)NN2CCC(N3CC4(CCN(c5cccc(C6CCC(=O)NC6=O)c5)CC4)C3)CC2)ccc1Nc1ncc2c(n1)N(C1CCCC1)CC(F)(F)C(=O)N2C (stereo not shown) [Compound 1, 4-((9-cyclopentyl-7,7-difluoro-5-methyl-6-oxo-6,7,8,9-tetrahydro-5H-pyrimido[4,5-b][1,4]diazepin-2-yl)amino)-N-(4-(7-(3-(2,6-dioxopiperidin-3-yl)phenyl)-2,7-diazaspiro[3.5]nonan-2-yl)piperidin-1-yl)-3-methoxybenzamide] | > 10000 nM | ++ (++: <0.5) | < 30 nM | < 50 nM
COc1cc(C(=O)NC2CCN(CCN3CCN(c4cc(F)c(NC5CCC(=O)NC5=O)cc4F)CC3)CC2)ncc1Nc1ncc2c(n1)N(C1CCCC1)CC(F)(F)C(=O)N2C (stereo not shown) [Compound 68, 5-((9-cyclopentyl-7,7-difluoro-5-methyl-6-oxo-6,7,8,9-tetrahydro-5H-pyrimido[4,5-b][1,4]diazepin-2-yl)amino)-N-(1-(2-(4-(4-((2,6-dioxopiperidin-3-yl)amino)-2,5-difluorophenyl)piperazin-1-yl)ethyl)piperidin-4-yl)-4-methoxypicolinamide] | > 10000 nM | ++ (++: <0.5) | < 50 nM | < 100 nM
COc1cc(C(=O)NC2CC3(CCN(CC4CCN(c5cc(OC)c(NC6CCC(=O)NC6=O)cc5F)CC4)CC3)C2)ncc1Nc1ncc2c(n1)N(C(C)C)CC(F)(F)C(=O)N2C (stereo not shown) [Compound 53, 5-((7,7-difluoro-9-isopropyl-5-methyl-6-oxo-6,7,8,9-tetrahydro-5H-pyrimido[4,5-b][1,4]diazepin-2-yl)amino)-N-(7-((1-(4-((2,6-dioxopiperidin-3-yl)amino)-2-fluoro-5-methoxyphenyl)piperidin-4-yl)methyl)-7-azaspiro[3.5]nonan-2-yl)-4-methoxypicolinamide] | > 10000 nM | ++ (++: <0.5) | < 30 nM | < 50 nM
CCN1CC(F)(F)C(=O)N(C)c2cnc(Nc3ccc(C(=O)NC4CCN(CCC5CCN(c6cc(F)c(NC7CCC(=O)NC7=O)cc6F)CC5)CC4)cc3OC)nc21 (stereo not shown) [Compound 64, N(1-(2-(1-(4-((2,6-dioxopiperidin-3-yl)amino)-2,5-difluorophenyl)piperidin-4-yl)ethyl)piperidin-4-yl)-4-((9-ethyl-7,7-difluoro-5-methyl-6-oxo-6,7,8,9-tetrahydro-5H-pyrimido[4,5-b][1,4]diazepin-2-yl)amino)-3-methoxybenzamide] | > 10000 nM | ++ (++: <0.5) | < 30 nM | < 30 nM
COc1cc(C(=O)NN2CCC(CCN3CCN(c4ccc(NC5CCC(=O)NC5=O)cc4F)CC3)CC2)ccc1Nc1ncc2c(n1)N(C(C)C)CC(F)(F)C(=O)N2C (stereo not shown) [Compound 29, 4-((7,7-difluoro-9-isopropyl-5-methyl-6-oxo-6,7,8,9-tetrahydro-5H-pyrimido[4,5-b][1,4]diazepin-2-yl)amino)-N-(4-(2-(4-(4-((2,6-dioxopiperidin-3-yl)amino)-2-fluorophenyl)piperazin-1-yl)ethyl)piperidin-1-yl)-3-methoxybenzamide] | > 10000 nM | +++ (+++: <0.3) | < 30 nM | < 30 nM
COc1cc(C(=O)NC2CCC(N(C)CC3CCN(c4cnc(C5CCC(=O)NC5=O)cc4C)CC3)CC2)ccc1Nc1ncc2c(n1)N(C1CCCC1)CC(F)(F)C(=O)N2C (stereo not shown) [Compound 14, 4-((9-cyclopentyl-7,7-difluoro-5-methyl-6-oxo-6,7,8,9-tetrahydro-5H-pyrimido[4,5-b][1,4]diazepin-2-yl)amino)-N-((1r,4r)-4-(((1-(6-(2,6-dioxopiperidin-3-yl)-4-methylpyridin-3-yl)piperidin-4-yl)methyl)(methyl)amino)cyclohexyl)-3-methoxybenzamide] | > 10000 nM | +++ (+++: <0.3) | < 30 nM | < 30 nM
COc1cc(C(=O)NC2CCN(CCN3CCN(c4ccc(NC5CCC(=O)NC5=O)c(F)c4)CC3)CC2)ccc1Nc1ncc2c(n1)N(C1CCCC1)CC(F)(F)C(=O)N2C (stereo not shown) [Compound 32, 4-((9-cyclopentyl-7,7-difluoro-5-methyl-6-oxo-6,7,8,9-tetrahydro-5H-pyrimido[4,5-b][1,4]diazepin-2-yl)amino)-N-(1-(2-(4-(4-((2,6-dioxopiperidin-3-yl)amino)-3-fluorophenyl)piperazin-1-yl)ethyl)piperidin-4-yl)-3-methoxybenzamide] | > 10000 nM | ++ (++: <0.5) | < 30 nM | < 30 nM
COc1cc(C(=O)NN2CCC(CCN3CCN(c4cc(OC)c(NC5CCC(=O)NC5=O)cc4F)CC3)CC2)ncc1Nc1ncc2c(n1)N(C(C)C)CC(F)(F)C(=O)N2C (stereo not shown) [Compound 46, 5-((7,7-difluoro-9-isopropyl-5-methyl-6-oxo-8H-pyrimido[4,5-b][1,4]diazepin-2-yl)amino)-N-(4-(2-(4-(4-((2,6-dioxo-3-piperidyl)amino)-2-fluoro-5-methoxy-phenyl)piperazin-1-yl)ethyl)-1-piperidyl)-4-methoxy-pyridine-2-carboxamide] | > 10000 nM | ++ (++: <0.5) | < 50 nM | < 100 nM
